The test system of experiment [1] is voltage operated calcium channels (VOC). The experiment in a line: inhibition of depolarization-induced 45Ca uptake into brain synaptosomes (crude P2 fraction). It counts as biochemical, male Wistar rat. The conditions noted are these: rat cerebral cortex synaptosomes (P2), KCl-depolarized samples, 15 s uptake at 37° C., pH 7.4; triplicate; from dose response curves. The text has this: The pharmacological properties of the compounds of the invention can be illustrated by determining their capability to inhibit calcium uptake into brain synaptosomes.
Depolarization of neuronal membranes leads to an opening of socalled `voltage operated calcium channels` (VOC) in the membranes which allows a massive influx of calcium from the extracellular space. A crude synaptosomal preparation (socalled P2 fraction) contains small vesicles surrounded by neuronal membrane and it is possible in such a preparation to study a depolarization-induced opening of VOC.
A male Wistar rat is decapitated and the cerebral cortex removed and homogenized in 10 ml of ice-cold 0.32 M sucrose using a glass homogenizer with a teflon pestle. All subsequent steps for isolation of synaptosomes are done at 0°-4° C. The homogenate is centrifuged at 1000×g for 10 min and the resulting supernatant is re-centrifuged at 18000×g for 20 min. This pellet (P2) is resuspended in 0.32 M sucrose (5 ml per g of original tissue) with a teflon pestle.
The tubes are pre- incubated for 30 min on ice and then for 6 min at 37° C. in a water bath.
The incubation is continued for 15 s.
The amount of radioactivity on the filter disc is determined by liquid scintillation spectrometry.
Test substances are dissolved in 10 ml of 48% ethanol at a concentration of 0.44 mg/ml. Dilutions are made in 48% ethanol to give final concentrations of 0.1, 0.3, 1, 3 and 10 μg/ml. Experiments are performed in triplicate. Controls for depolarized and nondepolarized samples are included in the assay and test substances are only tested in depolarized samples.
The IC50 value is estimated from dose response curves.

For experiment [2], the system named is peripheral calcium uptake, e.g. in blood vessels and the heart. The conditions noted are these: cited from earlier work.

Structures can show the parent of a compound that is named as a salt.

On to `CCCCN1CC[C@@H](c2ccc(C)o2)[C@H](COc2cccc(C(F)(F)F)c2)C1` (relative stereo) [Compound 12, HCl], for which the “IC50 (concentration of test substance which inhibits 50% of stimulated uptake of 45Ca)” value in experiment [1] is 18 µg/mL.

As to `CCCCCN1CC[C@@H](c2cccs2)[C@H](COc2ccccc2C#N)C1` (relative stereo) [Compound 15, (+-) trans 3-(2-cyanophenoxymethyl)-1-pentyl-4-(2-thienyl)piperidine, HCl], the “IC50 (concentration of test substance which inhibits 50% of stimulated uptake of 45Ca)” value in experiment [1] was found to be 7.2 µg/mL.

Consider `CCCCN1CC[C@@H](c2cccs2)[C@H](COc2cccc(OC)c2)C1` (relative stereo) [Compound 25, (+-) trans 1-butyl-4-(2-thienyl)-3-(3-methoxyphenoxymethyl)piperidine, HCl], for which the “IC50 (concentration of test substance which inhibits 50% of stimulated uptake of 45Ca)” value in experiment [1] is 9.1 µg/mL.

Consider `CCCCN1CC[C@@H](c2cccs2)[C@H](COc2ccccc2OC(C)C)C1` (relative stereo) [Compound 27, (+-) trans 1-butyl-3-(2-isopropoxyphenoxymethyl)-4-(2-thienyl)piperidine, oxalate], for which the “IC50 (concentration of test substance which inhibits 50% of stimulated uptake of 45Ca)” value in experiment [1] stood at 13 µg/mL.

Consider `CCCCCN1CC[C@@H](c2cccs2)[C@H](COc2cccc(CN)c2)C1` (relative stereo) [Compound 28, (+-) trans 3-(3-aminomethylphenoxymethyl)-1-pentyl-4-(2-thienyl)piperidine,HCl], for which, in experiment [1], the “IC50 (concentration of test substance which inhibits 50% of stimulated uptake of 45Ca)” value was found to be 30 µg/mL.

Consider `CCCCCN1CC[C@@H](c2ccsc2)[C@H](COc2ccc3c(c2)OCO3)C1` (relative stereo) [Compound 30, (+-) trans 3-(3,4-methylenedioxyphenoxymethyl)-1-pentyl-4-(3-thienyl)piperidine, HCl], for which the “IC50 (concentration of test substance which inhibits 50% of stimulated uptake of 45Ca)” value in experiment [1] turned out to be 4.9 µg/mL.

`CCCCCN1CC[C@@H](c2ccsc2)[C@H](COc2cccc(C(F)(F)F)c2)C1` (relative stereo) [Compound 31, (+-) trans 1-pentyl-4-(3-thienyl)-3-(3-trifluoromethylphenoxymethyl)piperidine, oxalate]: the “IC50 (concentration of test substance which inhibits 50% of stimulated uptake of 45Ca)” value in experiment [1] amounted to 4.7 µg/mL.

Consider `CCCCCN1CC[C@@H](c2ccsc2)[C@H](COc2ccc(Cl)cc2)C1` (relative stereo) [Compound 37, (+-) trans 3-(4-chlorophenoxymethyl)-1-pentyl-4-(3-thienyl)piperidine, HCl], for which the “IC50 (concentration of test substance which inhibits 50% of stimulated uptake of 45Ca)” value in experiment [1] came out at 3.6 µg/mL.

On to `CCCCCN1CC[C@@H](c2ccsc2)[C@H](COc2ccc(C#N)cc2)C1` (relative stereo) [Compound 39, (+-) trans 3-(4-cyanophenoxymethyl)-1-pentyl-4-(3-thienyl)piperidine, HCl], for which the “IC50 (concentration of test substance which inhibits 50% of stimulated uptake of 45Ca)” value in experiment [1] was 2.7 µg/mL.

On to `CCCCCN1CC[C@@H](c2ccsc2)[C@H](COc2ccc(OC(F)(F)F)cc2)C1` (relative stereo) [Compound 43, (+-) trans 3-(4-trifluoromethoxyphenoxymethyl)-1-pentyl-4-(3-thienyl)piperidine, HCl], for which the “IC50 (concentration of test substance which inhibits 50% of stimulated uptake of 45Ca)” value in experiment [1] turned out to be 10 µg/mL.

With `FC(F)(F)c1cccc(OC[C@@H]2CNCC[C@H]2c2ccsc2)c1` (relative stereo) [Compound 44, (+-) trans 4-(thienyl)-3-(3-trifluoromethylphenoxymethyl)piperidine, HCl], in experiment [1], the “IC50 (concentration of test substance which inhibits 50% of stimulated uptake of 45Ca)” value was 2.8 µg/mL.

`CCC(C)CN1CC[C@@H](c2ccsc2)[C@H](COc2cccc(C(F)(F)F)c2)C1` (relative stereo) [Compound 47, (+-) trans(2-methylbutyl)-4-(3-thienyl)-3-(3-trifluoromethylphenoxymethyl)piperidine, HCl]: the “IC50 (concentration of test substance which inhibits 50% of stimulated uptake of 45Ca)” value in experiment [1] was determined as 5.8 µg/mL.

`COc1ccc([C@@H]2Sc3ccccc3N(CCN(C)C)C(=O)[C@@H]2OC(C)=O)cc1` [Diltiazem]: the “activity against peripheral calcium uptake” value in experiment [2] is “have activity”.

As to `COC(=O)C1=C(C)NC(C)=C(C(=O)OC)C1c1ccccc1[N+](=O)[O-]` [Nifedipine], the “activity against peripheral calcium uptake” value in experiment [2] was “have activity”.

On to `COc1ccc(CCN(C)CCCC(C#N)(c2ccc(OC)c(OC)c2)C(C)C)cc1OC` (stereo not drawn) [Verapamil], for which, in experiment [2], the “activity against peripheral calcium uptake” value is listed as “have activity”.

These data come from US5102894A, “Substituted piperidine compounds and their use” (Novo Nordisk A/S, priority 1989, dated 1992).
